# Measurements published in paper PMC7419507, “In vitro Cas9-assisted editing of modular polyketide synthase genes to produce desired natural product derivatives” (Nature Communications, 2020).
# Values joined by “and” are separate entries in the source; they are usually repeats but may differ in a detail not shown here. Equal values may be shown once.
# Assays:
# Assay type in all cases: cell-based
# FKBP12 and mTOR = biological target: T1, FKBP12 and mTOR (Homo sapiens, UniProt P42345+P62942); test: Fluoppi analysis: induction of FKBP12-mTOR complex formation in transfected HeLa cells; conditions: for Foci intensity: raw data, one replicate per line
# T1 construct: host or cells: HeLa cells
# T1 sequence (P42345 2025-2114 limits assumed): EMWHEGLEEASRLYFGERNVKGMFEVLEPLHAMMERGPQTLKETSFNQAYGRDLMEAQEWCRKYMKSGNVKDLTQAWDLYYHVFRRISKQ
# T1 sequence (P62942 whole entry): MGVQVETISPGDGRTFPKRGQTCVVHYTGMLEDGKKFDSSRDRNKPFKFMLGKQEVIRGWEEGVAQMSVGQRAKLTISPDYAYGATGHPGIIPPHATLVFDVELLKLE
# Description: Fluoppi harbours a tetrameric fluorescent protein hAG tag and an oligomeric assembly helper Ash tag to create detectable fluorescent foci in cells when there are interactions between two proteins fused to each tag[32].
# HeLa cells were maintained in DMEM (Fujifilm Wako, Osaka, Japan) supplemented with 10% FBS (Thermo Fisher Scientific, MA, USA) and 1% of Penicillin-Streptomycin (Thermo Fisher Scientific) in a humidified incubator with 5% CO2 at 37 °C. Harvested cells were plated at 1 × 10^6 cells/well in 6-well plate and incubated for 6 h. Then each 1.25 µg of phAG-mTOR and pAsh-FKBP12 (Medical and Biological Laboratories Co., Ltd., Aichi, Japan) was co-transfected with Lipofectamine 2000 reagent (Thermo Fisher Scientific) overnight. Next day, transfected cells were harvested and seeded in 384-well optical-bottom microplate (PerkinElmer, MA, USA) at a density of 3000 cells/well. After the 24 h incubation at 37 °C, cells were treated with different concentrations of compounds for 1 h. Cells were then fixed with 4% paraformaldehyde and stained with 1 µg/ml of Hoechst33342 (Thermo Fisher Scientific). Cell images of 9 visual fields/well were acquired with ×20 objective lens in Opera Phenix High-Content Screening System (PerkinElmer) and analysed by Harmony4.9 software (PerkinElmer). Because protein-protein interactions are quantified by measuring the aggregation of fluorescent elements in foci, fluorescent intensity in foci was normalised by total fluorescent intensity in each cell. EC50 values were calculated using TIBCO Spotfire 10.3 software (PerkinElmer).
# T lymphoma Jurkat cells = test: Cytotoxicity assay (CellTiter-Glo, 72 h), Jurkat; conditions: raw data (replicates)
# Description: (§1) Jurkat cells were cultured in RPMI1640 medium supplemented with 10% foetal bovine serum, penicillin (50 U/ml), streptomycin (50 μg/ml), and Glutamax. SKOV-3 cells were cultured in DMEM medium supplemented with 10% fetal bovine serum, penicillin (50 U/ml), and streptomycin (50 μg/ml). MESO-1 cells were cultured in RPMI1640 medium supplemented with 10% fetal bovine serum, penicillin (50 U/ml), and streptomycin (50 μg/ml). All cell lines were seeded in a 384-well plate at a density of 1000 cells/well in 20 μl of media and incubated at 37 °C in a humidified incubator with 5% CO2. After 4 h, 2-fold dilution samples resolved in DMSO were added to the cell culture at the concentration of 0.5% (0.1 μl) and incubated for 72 h. Cell viabilities were measured using a CellTiter-Glo luminescent cell viability assay and EnVision multilabel plate reader.
# [1] = system: human ovarian adenocarcinoma SKOV-3 cells; test: Cytotoxicity assay (CellTiter-Glo, 72 h), SKOV-3; conditions: raw replicate data
# Description: as §1
# [2] = system: malignant pleural mesothelioma MESO-1 cells; test: Cytotoxicity assay (CellTiter-Glo, 72 h), MESO-1; conditions: raw replicate data
# Description: as §1
# [3] = system: Jurkat, SKOV-3 and MESO-1 cells; test: Cytotoxicity assay, statements for all tested cell lines together; conditions: against the tested cell lines (Jurkat, SKOV-3, MESO-1)
# Description: as §1
smiles,measurement,setting,value
COC1CC2CCC(C)C(O)(O2)C(=O)C(=O)N2CCCCC2C(=O)OC(C(C)CC2CCC(O)C(OC)C2)CC=C(C)C(O)CC(=O)C(C)CC(C)C=CC=CC=C1C (centres unmarked) [Compound 10],"PPI-inducing (binding enhancing) activity between FKBP12 and mTOR compared with rapamycin (1), in words",FKBP12 and mTOR; Fluoppi,relatively weaker activities
same,EC50,"FKBP12 and mTOR; Fluoppi, HeLa cells, 1 h treatment, three independent biological replicates, read-out: EC50, induction of the formation of FKBP-mTOR complex",21 nM
same,Foci intensity,FKBP12 and mTOR; conc 9.53674e-5 uM,0.02938 and 0.02062 and 0.01935
same,Foci intensity,FKBP12 and mTOR; conc 0.000190735 uM,0.01089 and 0.04735 and 0.006372
same,Foci intensity,FKBP12 and mTOR; conc 0.00038147 uM,0.02158 and 0.01349 and 0.009009
same,Foci intensity,FKBP12 and mTOR; conc 0.000762939 uM,0.009136 and 0.02959 and 0.01473
same,Foci intensity,FKBP12 and mTOR; conc 0.00152588 uM,0.01663 and 0.006313 and 0.01798
same,Foci intensity,FKBP12 and mTOR; conc 0.00305176 uM,0.01047 and 0.01326 and 0.01713
same,Foci intensity,FKBP12 and mTOR; conc 0.00610352 uM,0.03111 and 0.03528 and 0.05091
same,Foci intensity,FKBP12 and mTOR; conc 0.012207 uM,0.1191 and 0.0902 and 0.07426
same,Foci intensity,FKBP12 and mTOR; conc 0.0244141 uM,0.2308 and 0.2676 and 0.239
same,Foci intensity,FKBP12 and mTOR; conc 0.0488281 uM,0.3046 and 0.3291 and 0.3775
same,Foci intensity,FKBP12 and mTOR; conc 0.0976562 uM,0.4136 and 0.3574 and 0.3612
same,Foci intensity,FKBP12 and mTOR; conc 0.195312 uM,0.3726 and 0.4258 and 0.4147
same,Foci intensity,FKBP12 and mTOR; conc 0.390625 uM,0.4457 and 0.3806 and 0.4256
same,Foci intensity,FKBP12 and mTOR; conc 0.78125 uM,0.3848 and 0.4238 and 0.4902
same,Foci intensity,FKBP12 and mTOR; conc 1.5625 uM,0.4004 and 0.3924 and 0.3797
same,Foci intensity,FKBP12 and mTOR; conc 3.125 uM,0.374 and 0.3995 and 0.4137
same,Foci intensity,FKBP12 and mTOR; conc 6.25 uM,0.4751 and 0.3772 and 0.3106
same,Foci intensity,FKBP12 and mTOR; conc 12.5 uM,0.4864 and 0.3577 and 0.3572
same,Foci intensity,FKBP12 and mTOR; conc 25 uM,0.403 and 0.3428 and 0.3243
same,Foci intensity,FKBP12 and mTOR; conc 50 uM,0.4648 and 0.4194 and 0.3824
same,Jurkat viability (%),T lymphoma Jurkat cells; conc 9.53674e-5 uM,100.6% and 99.4% and 103.1%
same,Jurkat viability (%),T lymphoma Jurkat cells; conc 0.000190735 uM,101.6% and 102.5% and 98.5%
same,Jurkat viability (%),T lymphoma Jurkat cells; conc 0.00038147 uM,98.4% and 99.9%
same,Jurkat viability (%),T lymphoma Jurkat cells; conc 0.000762939 uM,100.1% and 103.3% and 99.4%
same,Jurkat viability (%),T lymphoma Jurkat cells; conc 0.00152588 uM,103.7% and 95.3% and 102.7%
same,Jurkat viability (%),T lymphoma Jurkat cells; conc 0.00305176 uM,99.4% and 102.2% and 96.7%
same,Jurkat viability (%),T lymphoma Jurkat cells; conc 0.00610352 uM,103.1% and 102.2% and 98.6%
same,Jurkat viability (%),T lymphoma Jurkat cells; conc 0.012207 uM,106.4% and 103.4% and 103.7%
same,Jurkat viability (%),T lymphoma Jurkat cells; conc 0.0244141 uM,106.5% and 107.7% and 103.0%
same,Jurkat viability (%),T lymphoma Jurkat cells; conc 0.0488281 uM,101.8% and 99.9% and 103.2%
same,Jurkat viability (%),T lymphoma Jurkat cells; conc 0.0976562 uM,106.2% and 107.8% and 101.3%
same,Jurkat viability (%),T lymphoma Jurkat cells; conc 0.195312 uM,97.6% and 99.7% and 92.3%
same,Jurkat viability (%),T lymphoma Jurkat cells; conc 0.390625 uM,92.6% and 88.6% and 95.1%
same,Jurkat viability (%),T lymphoma Jurkat cells; conc 0.78125 uM,82.4% and 83.0% and 85.1%
same,Jurkat viability (%),T lymphoma Jurkat cells; conc 1.5625 uM,79.7% and 82.1% and 77.6%
same,Jurkat viability (%),T lymphoma Jurkat cells; conc 3.125 uM,74.2% and 71.9% and 69.9%
same,Jurkat viability (%),T lymphoma Jurkat cells; conc 6.25 uM,76.5% and 74.7% and 74.5%
same,Jurkat viability (%),T lymphoma Jurkat cells; conc 12.5 uM,63.4% and 64.1% and 59.5%
same,Jurkat viability (%),T lymphoma Jurkat cells; conc 25 uM,29.8% and 32.1% and 29.9%
same,Jurkat viability (%),T lymphoma Jurkat cells; conc 50 uM,2.7% and 3.5% and 3.4%
same,SKOV3 viability (%),[1]; conc 9.53674e-5 uM,102.2% and 102.6% and 104.7%
same,SKOV3 viability (%),[1]; conc 0.000190735 uM,89.9% and 100.2% and 100.4%
same,SKOV3 viability (%),[1]; conc 0.00038147 uM,103.4% and 105.0% and 103.9%
same,SKOV3 viability (%),[1]; conc 0.000762939 uM,100.5% and 98.4% and 99.4%
same,SKOV3 viability (%),[1]; conc 0.00152588 uM,106.0% and 105.3%
same,SKOV3 viability (%),[1]; conc 0.00305176 uM,103.5% and 101.1% and 97.3%
same,SKOV3 viability (%),[1]; conc 0.00610352 uM,103.4% and 105.6% and 104.9%
same,SKOV3 viability (%),[1]; conc 0.012207 uM,103.7% and 98.9% and 95.6%
same,SKOV3 viability (%),[1]; conc 0.0244141 uM,104.7% and 103.8% and 99.6%
same,SKOV3 viability (%),[1]; conc 0.0488281 uM,100.2% and 99.1% and 100.0%
same,SKOV3 viability (%),[1]; conc 0.0976562 uM,104.8% and 104.3% and 100.1%
same,SKOV3 viability (%),[1]; conc 0.195312 uM,95.4% and 97.0% and 94.0%
same,SKOV3 viability (%),[1]; conc 0.390625 uM,97.7% and 103.0% and 102.9%
same,SKOV3 viability (%),[1]; conc 0.78125 uM,93.0% and 94.9% and 92.8%
same,SKOV3 viability (%),[1]; conc 1.5625 uM,96.7% and 99.9% and 92.6%
same,SKOV3 viability (%),[1]; conc 3.125 uM,90.3% and 92.8% and 92.7%
same,SKOV3 viability (%),[1]; conc 6.25 uM,95.7% and 97.5% and 89.4%
same,SKOV3 viability (%),[1]; conc 12.5 uM,93.5% and 97.4% and 91.5%
same,SKOV3 viability (%),[1]; conc 25 uM,91.8% and 89.5% and 94.8%
same,SKOV3 viability (%),[1]; conc 50 uM,48.8% and 50.2% and 51.9%
same,MESO1 viability (%),[2]; conc 9.53674e-5 uM,100.8% and 105.3% and 105.4%
same,MESO1 viability (%),[2]; conc 0.000190735 uM,95.7% and 102.9% and 100.7%
same,MESO1 viability (%),[2]; conc 0.00038147 uM,104.6% and 103.5% and 110.6%
same,MESO1 viability (%),[2]; conc 0.000762939 uM,99.4% and 101.6% and 106.3%
same,MESO1 viability (%),[2]; conc 0.00152588 uM,103.6% and 107.9% and 110.6%
same,MESO1 viability (%),[2]; conc 0.00305176 uM,103.7% and 97.7% and 102.1%
same,MESO1 viability (%),[2]; conc 0.00610352 uM,102.5% and 110.7% and 106.5%
same,MESO1 viability (%),[2]; conc 0.012207 uM,100.1% and 112.2% and 102.4%
same,MESO1 viability (%),[2]; conc 0.0244141 uM,100.1% and 101.2% and 104.6%
same,MESO1 viability (%),[2]; conc 0.0488281 uM,99.1% and 97.8% and 101.7%
same,MESO1 viability (%),[2]; conc 0.0976562 uM,102.3% and 104.8% and 99.5%
same,MESO1 viability (%),[2]; conc 0.195312 uM,92.8% and 95.2% and 98.3%
same,MESO1 viability (%),[2]; conc 0.390625 uM,100.3% and 99.6% and 94.3%
same,MESO1 viability (%),[2]; conc 0.78125 uM,88.5% and 91.5% and 91.8%
same,MESO1 viability (%),[2]; conc 1.5625 uM,91.5% and 95.3% and 90.6%
same,MESO1 viability (%),[2]; conc 3.125 uM,85.5% and 90.0% and 83.9%
same,MESO1 viability (%),[2]; conc 6.25 uM,92.1% and 98.3% and 96.6%
same,MESO1 viability (%),[2]; conc 12.5 uM,90.4% and 90.6% and 90.0%
same,MESO1 viability (%),[2]; conc 25 uM,77.8% and 73.6% and 73.2%
same,MESO1 viability (%),[2]; conc 50 uM,53.8% and 51.9% and 42.0%
same,Concentration at which cytotoxic activities were shown,[3],over 10 µM
